Assay results published in PubChem BioAssay AID1259407 (Chemical Carcinogenesis Research Information System (CCRIS), 2018).
Active and inactive are the calls of the source. The rule behind the calls is not given here.

System: CCRIS mutagenicity, Ames/micronucleus/aberration tests
Assay: CCRIS mutagenicity studies
[1] = Test System: AMES SALMONELLA TYPHIMURIUM, Strain/Indicator: TA98, Metabolic Activation: NONE, Method: STANDARD PLATE
[2] = Test System: AMES SALMONELLA TYPHIMURIUM, Strain/Indicator: TA1535, Metabolic Activation: NONE, Method: PREINCUBATION

`COc1c2occc2cc2ccc(=O)oc12` was tested, and the mutagenic call (Test System: AMES SALMONELLA TYPHIMURIUM, Strain/Indicator: TA92, Metabolic Activation: NONE, Method: SPOT TEST) was “inactive; negative”, the mutagenic call (Test System: AMES SALMONELLA TYPHIMURIUM, Strain/Indicator: TA92, Metabolic Activation: RAT, LIVER, S-9, AROCLOR 1254, Method: SPOT TEST) was “inactive; negative” and the mutagenic call (Test System: AMES SALMONELLA TYPHIMURIUM, Strain/Indicator: TA94, Metabolic Activation: NONE, Method: SPOT TEST) was “inactive; negative”. The mutagenic call (Test System: AMES SALMONELLA TYPHIMURIUM, Strain/Indicator: TA94, Metabolic Activation: RAT, LIVER, S-9, AROCLOR 1254, Method: SPOT TEST) was “inactive; negative”, the mutagenic call (Test System: AMES SALMONELLA TYPHIMURIUM, Strain/Indicator: TA97, Metabolic Activation: NONE, Method: SPOT TEST) was “inactive; negative” and the mutagenic call (Test System: AMES SALMONELLA TYPHIMURIUM, Strain/Indicator: TA97, Metabolic Activation: RAT, LIVER, S-9, AROCLOR 1254, Method: SPOT TEST) was “inactive; negative”. The mutagenic call (Test System: AMES SALMONELLA TYPHIMURIUM, Strain/Indicator: TA98, Metabolic Activation: HAMSTER, LIVER, S-9 (30%), AROCLOR 1254, Method: PREINCUBATION) was “inactive; negative”, the mutagenic call (Test System: AMES SALMONELLA TYPHIMURIUM, Strain/Indicator: TA98, Metabolic Activation: NONE, Method: PREINCUBATION) was “inactive; negative” and the mutagenic call (Test System: AMES SALMONELLA TYPHIMURIUM, Strain/Indicator: TA98, Metabolic Activation: NONE, Method: SPOT TEST) was “inactive; negative”. For the same compound, the mutagenic call [1] was “inactive; negative”, the mutagenic call (Test System: AMES SALMONELLA TYPHIMURIUM, Strain/Indicator: TA98, Metabolic Activation: RAT, LIVER, S-9, AROCLOR 1254, Method: SPOT TEST) was “inactive; negative” and the mutagenic call (Test System: AMES SALMONELLA TYPHIMURIUM, Strain/Indicator: TA98, Metabolic Activation: RAT, LIVER, S-9, PHENOBARBITAL, Method: STANDARD PLATE) was “inactive; negative”. The mutagenic call (Test System: AMES SALMONELLA TYPHIMURIUM, Strain/Indicator: TA100, Metabolic Activation: HAMSTER, LIVER, S-9 (5%, 10% OR 30%), AROCLOR 1254, Method: PREINCUBATION) was “active; positive”, the mutagenic call (Test System: AMES SALMONELLA TYPHIMURIUM, Strain/Indicator: TA100, Metabolic Activation: NONE, Method: PREINCUBATION) was “inactive; negative” and the mutagenic call (Test System: AMES SALMONELLA TYPHIMURIUM, Strain/Indicator: TA100, Metabolic Activation: NONE, Method: SPOT TEST) was “inactive; negative”. For the same compound, the mutagenic call (Test System: AMES SALMONELLA TYPHIMURIUM, Strain/Indicator: TA100, Metabolic Activation: RAT, LIVER, S-9 (10%), AROCLOR 1254, Method: PREINCUBATION) was “inactive; negative”, the mutagenic call (Test System: AMES SALMONELLA TYPHIMURIUM, Strain/Indicator: TA100, Metabolic Activation: RAT, LIVER, S-9, AROCLOR 1254, Method: SPOT TEST) was “inactive; negative” and the mutagenic call (Test System: AMES SALMONELLA TYPHIMURIUM, Strain/Indicator: TA102, Metabolic Activation: HAMSTER, LIVER, S-9 (5%), AROCLOR 1254, Method: PREINCUBATION) was “active; positive”. For the same compound, the mutagenic call (Test System: AMES SALMONELLA TYPHIMURIUM, Strain/Indicator: TA102, Metabolic Activation: NONE, Method: PREINCUBATION) was “inactive; negative”, the mutagenic call (Test System: AMES SALMONELLA TYPHIMURIUM, Strain/Indicator: TA102, Metabolic Activation: NONE, Method: SPOT TEST) was “inactive; negative” and the mutagenic call (Test System: AMES SALMONELLA TYPHIMURIUM, Strain/Indicator: TA102, Metabolic Activation: RAT, LIVER, S-9 (5%), AROCLOR 1254, Method: PREINCUBATION) was “active; positive”. The mutagenic call (Test System: AMES SALMONELLA TYPHIMURIUM, Strain/Indicator: TA102, Metabolic Activation: RAT, LIVER, S-9, AROCLOR 1254, Method: SPOT TEST) was “inactive; negative”, the mutagenic call (Test System: AMES SALMONELLA TYPHIMURIUM, Strain/Indicator: TA104, Metabolic Activation: HAMSTER, LIVER, S-9 (30%), AROCLOR 1254, Method: PREINCUBATION) was “active; positive” and the mutagenic call (Test System: AMES SALMONELLA TYPHIMURIUM, Strain/Indicator: TA104, Metabolic Activation: RAT, LIVER, S-9 (5% OR 10%), AROCLOR 1254, Method: PREINCUBATION) was “active; positive”. For the same compound, the mutagenic call (Test System: AMES SALMONELLA TYPHIMURIUM, Strain/Indicator: TA104, Metabolic Activation: RAT, LIVER, S-9(30%), AROCLOR 1254, Method: PREINCUBATION) was “active; positive”, the mutagenic call (Test System: AMES SALMONELLA TYPHIMURIUM, Strain/Indicator: TA1535, Metabolic Activation: HAMSTER, LIVER, S-9 (30%), AROCLOR 1254, Method: PREINCUBATION) was “inactive; negative” and the mutagenic call [2] was “inactive; negative”. For the same compound, the mutagenic call (Test System: AMES SALMONELLA TYPHIMURIUM, Strain/Indicator: TA1535, Metabolic Activation: RAT, LIVER, S-9 (30%), AROCLOR 1254, Method: PREINCUBATION) was “inactive; negative”.

In the case of `CN=[N+](C)[O-]`, the mutagenic call (Test System: AMES SALMONELLA TYPHIMURIUM, Strain/Indicator: TA100, Metabolic Activation: RAT, LIVER, S-9, KC500 OR PHENOBARBITAL, Method: LIQUID SUSPENSION) is reported as “active; positive”, the mutagenic call (Test System: AMES SALMONELLA TYPHIMURIUM, Strain/Indicator: TA1535, Metabolic Activation: HAMSTER, LIVER, S-9, AROCLOR 1254, Method: PREINCUBATION) is reported as “inactive; negative” and the mutagenic call [2] is reported as “inactive; negative”. For the same compound, the mutagenic call (Test System: AMES SALMONELLA TYPHIMURIUM, Strain/Indicator: TA1535, Metabolic Activation: NONE, Method: STANDARD PLATE) was “inactive; negative”, the mutagenic call (Test System: AMES SALMONELLA TYPHIMURIUM, Strain/Indicator: TA1535, Metabolic Activation: RAT, LIVER, S-9, AROCLOR 1254, Method: PREINCUBATION) was “inactive; negative” and the mutagenic call (Test System: AMES SALMONELLA TYPHIMURIUM, Strain/Indicator: TA1535, Metabolic Activation: RAT, LIVER, S-9, KC500 OR PHENOBARBITAL, Method: LIQUID SUSPENSION) was “active; positive”. For the same compound, the mutagenic call (Test System: AMES SALMONELLA TYPHIMURIUM, Strain/Indicator: YG7108, Metabolic Activation: NONE, Method: STANDARD PLATE) was “active; positive”, the mutagenic call (Test System: E. COLI, Strain/Indicator: WP2 UVRA, Metabolic Activation: HAMSTER, LIVER, S-9, AROCLOR 1254, Method: PREINCUBATION) was “inactive; negative” and the mutagenic call (Test System: E. COLI, Strain/Indicator: WP2 UVRA, Metabolic Activation: HAMSTER, LIVER, S-9, Method: PREINCUBATION) was “inactive; negative”. For the same compound, the mutagenic call (Test System: E. COLI, Strain/Indicator: WP2 UVRA, Metabolic Activation: MOUSE, LIVER, S-9, AROCLOR 1254, Method: PREINCUBATION) was “inactive; negative”, the mutagenic call (Test System: E. COLI, Strain/Indicator: WP2 UVRA, Metabolic Activation: MOUSE, LIVER, S-9, Method: PREINCUBATION) was “inactive; negative” and the mutagenic call (Test System: E. COLI, Strain/Indicator: WP2 UVRA, Metabolic Activation: NONE, Method: PREINCUBATION) was “inactive; negative”. For the same compound, the mutagenic call (Test System: E. COLI, Strain/Indicator: WP2 UVRA, Metabolic Activation: RAT, LIVER, S-9, AROCLOR 1254, Method: PREINCUBATION) was “inactive; negative” and the mutagenic call (Test System: E. COLI, Strain/Indicator: WP2 UVRA, Metabolic Activation: RAT, LIVER, S-9, Method: PREINCUBATION) was “inactive; negative”.

In the case of `O=C(O)c1ccc([N+](=O)[O-])o1`, the mutagenic call (Test System: AMES SALMONELLA TYPHIMURIUM, Strain/Indicator: TA98(1,8-DNP6), Metabolic Activation: NONE, Method: STANDARD PLATE) is reported as “inactive; negative”, the mutagenic call (Test System: AMES SALMONELLA TYPHIMURIUM, Strain/Indicator: TA98(1,8-DNP6), Metabolic Activation: RAT, LIVER, S-9, 3-METHYLCHOLANTHRENE, Method: STANDARD PLATE) is reported as “inactive; negative” and the mutagenic call (Test System: AMES SALMONELLA TYPHIMURIUM, Strain/Indicator: TA98(NR), Metabolic Activation: NONE, Method: STANDARD PLATE) is reported as “inactive; negative”. For the same compound, the mutagenic call (Test System: AMES SALMONELLA TYPHIMURIUM, Strain/Indicator: TA98(NR), Metabolic Activation: RAT, LIVER, S-9, 3-METHYLCHOLANTHRENE, Method: STANDARD PLATE) was “inactive; negative”, the mutagenic call [1] was “inactive; negative” and the mutagenic call (Test System: AMES SALMONELLA TYPHIMURIUM, Strain/Indicator: TA98, Metabolic Activation: RAT, LIVER, S-9, 3-METHYLCHOLANTHRENE, Method: STANDARD PLATE) was “inactive; negative”. For the same compound, the mutagenic call (Test System: AMES SALMONELLA TYPHIMURIUM, Strain/Indicator: TA100, Metabolic Activation: NONE, Method: STANDARD PLATE) was “active; positive”.
